Literature values, collected in patent US6310180A, “Method for synthesis of proteins” (Vanderbilt University, priority 1995, dated 2001).
Square brackets hold non-standard residues; d marks the D form. Peptide text beside a SMILES is read from it. Sta = CC(C)C[C@H](N)[C@@H](O)CC(=O)O

Molecular target: HIV-1 protease (Human immunodeficiency virus type 1 group M subtype B, UniProt P03369)
Details: aspartic protease inhibitor "has been shown to inhibit the HIV-1 protease"; added to the ligation solution to prevent autoproteolysis

CC(=O)N[C@H](C(=O)N[C@H](C(=O)N[C@@H](CC(C)C)[C@@H](O)CC(=O)N[C@@H](C)C(=O)N[C@@H](CC(C)C)[C@@H](O)CC(=O)O)C(C)C)C(C)C [acetyl-pepstatin] (Ac-VV[Sta]A[Sta]-OH)
Ki: 20 mM
